According to patent US6509367B1 (priority 2001, dated 2003):
Where two headings read alike, the source gives them in different places.

Legend:
mice [1] = assay: Spontaneous (locomotor) activity in mice, compound alone (agonism test); assay type: in vivo; conditions: for inhibition in vivo at 10 mg/kg: read-out: Max % inhibit of spontaneous locomotor activity, Compound Alone; for ED50 / SA: > dose, 50% activity not achieved at this highest dose tested: mice, i.v.; for Max stim of spontaneous locomotor activity, Compound Alone (in words): at the dose(s) [mg/kg] given in parentheses in the cell
Method: (§1) Male ICR mice (25-32 g), purchased from Harlan (Dublin, Va.), were housed in groups of five. All animals were kept in a temperature-controlled (20-22° C.) environment with a 12-hour light-dark cycle (lights on at 7 a.m.). Separate mice were used for testing each drug dose in the in vivo behavioral procedures. The mice were maintained on a […] light: dark cycle, and received food and water ad libitum. Brain tissue for binding studies was obtained from male Sprague-Dawley rats (150-200 g) purchased from Harlan Laboratories (Dublin, Va.).
(§2) Measurement of spontaneous activity in mice occurred in standard activity chambers interfaced with a Digiscan Animal Activity Monitor (Omnitech Electronics, Inc., Columbus, Ohio). A standard tail-flick apparatus (described by Dewey et al., 1970) and a digital thermometer (Fisher Scientific, Pittsburgh, Pa.) were used to measure antinociception and rectal temperature, respectively.
(§3) All drugs were administered to the mice intravenously (i.v.) in the tail vein at a volume of 0.1 ml/10 g.
(§4) Maximum latency of 10 sec was used.

mice [2] = assay: Tail-flick antinociception in mice, compound alone (agonism test); assay type: in vivo; conditions: for ED50: Mus musculus, iv
Method: as §1, §2, §3, §4

mice [3] = assay: Rectal temperature (hypothermia) in mice, compound alone (agonism test); assay type: in vivo; conditions: for ED50: Mus musculus, iv
Method: as §1, §2, §3, §4

CB1 receptor = CB1 receptor (Rattus norvegicus, UniProt P20272); assay: biochemical; assay type: binding; conditions: for Ki: 1 nM [3H] CP 55,940, rat whole brain P2 membranes, 30° C. for 1 hr
Method: as §1
All assays, as described briefly below, were performed in triplicate, and the results represent the combined data from three to six individual experiments. Following decapitation and rapid removal of the brain, whole brain was homogenized and centrifuged. The resulting pellet was termed P1. The supernatant was saved and combined with the two subsequent supernatants obtained from washing of the P1 pellet. The combined supernatant fractions were centrifuged, resulting in the P2 pellet. After further incubation and centrifuging, this pellet was resuspended in assay buffer to a protein concentration of approximately 2 mg/ml. The membrane preparation was quickly frozen in a bath solution of dry ice and 2-methylbutane (Sigma Chemical Co., St. Louis, Mo.), then stored at −80° C. for no more than 2 weeks. […] Binding was initiated by the addition of 150 μg of P2 membrane to test tubes containing 1 nM of [3H] […] Following incubation at 30° C. for 1 hr, binding was terminated by addition of ice-cold buffer and vacuum filtration through pretreated filters in a 12-well sampling manifold (Millipore, Bedford, Mass.). After washing, filters were placed into plastic scintillation vials (Packard, Downer Grove, Ill.) and shaken. The quantity of radioactivity present was determined by liquid scintillation spectrometry.

mice [4] = assay: Spontaneous activity in mice, compound in combination with 3 mg/kg Δ^9-THC (antagonism test); assay type: in vivo; conditions: for SA: maximum % antagonism of 3 mg/kg Δ^9-THC: analog 10 min before Δ^9-THC; for Max stim of spontaneous locomotor activity, Compound with 3 mg/kg Δ^9-THC (in words): at the dose(s) [mg/kg] given in parentheses in the cell
Method: as §1, §2, §3, §4

mice [5] = assay: Rectal temperature in mice, compound in combination with 3 mg/kg Δ^9-THC (antagonism test); assay type: in vivo
Method: as §1, §2, §3, §4

mice [6] = assay: Tail-flick antinociception in mice, compound in combination with 3 mg/kg Δ^9-THC (antagonism test); assay type: in vivo; conditions: for % MPE: maximum % antagonism of 3 mg/kg Δ^9-THC: at 10 mg/kg i.v.
Method: as §1, §2, §3, §4

[7] = Mus musculus, iv, at 10 mg/kg i.v.
[8] = Mus musculus, iv, read-out: SA: > dose, 50% activity not achieved at this highest dose tested
[9] = read-out: TF: > dose, 50% activity not achieved at this highest dose tested
[10] = read-out: RT: > dose, 50% activity not achieved at this highest dose tested

Sequence of CB1 receptor (P20272 whole entry): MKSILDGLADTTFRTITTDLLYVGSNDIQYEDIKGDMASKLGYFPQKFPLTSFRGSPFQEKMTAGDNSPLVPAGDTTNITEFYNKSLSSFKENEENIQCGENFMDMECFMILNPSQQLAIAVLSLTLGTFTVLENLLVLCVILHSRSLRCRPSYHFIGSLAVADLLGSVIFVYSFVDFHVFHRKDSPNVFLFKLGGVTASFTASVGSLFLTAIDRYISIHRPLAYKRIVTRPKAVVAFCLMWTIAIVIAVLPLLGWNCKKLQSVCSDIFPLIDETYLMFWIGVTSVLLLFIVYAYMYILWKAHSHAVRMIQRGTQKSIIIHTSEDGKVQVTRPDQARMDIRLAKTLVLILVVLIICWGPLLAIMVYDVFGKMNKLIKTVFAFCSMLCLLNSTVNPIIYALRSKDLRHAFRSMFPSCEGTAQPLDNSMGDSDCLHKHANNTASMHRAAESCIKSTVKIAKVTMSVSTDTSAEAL

Compound | inhibition in vivo at 10 mg/kg (mice [1]; [7]) | Max stim of spontaneous locomotor activity, Compound Alone (in words) (mice [1]) | Ki (CB1 receptor; read-out: Ki) | Max % inhibit of spontaneous locomotor activity, Compound with 3 mg/kg Δ^9-THC (mice [4]; at 10 mg/kg i.v.) | Max stim of spontaneous locomotor activity, Compound with 3 mg/kg Δ^9-THC (in words) (mice [4]) | ED50 (mice [1]; [8]) | ED50 (mice [2]; [9]) | ED50 (mice [3]; [10]) | % MPE: maximum % antagonism of 3 mg/kg Δ^9-THC (mice [6]) | SA: > dose, 50% activity not achieved at this highest dose tested (mice [1]) | TF: > dose, 50% activity not achieved at this highest dose tested (mice [2]; i.v.) | RT: > dose, 50% activity not achieved at this highest dose tested (mice [3]; i.v.) | Ki (CB1 receptor; Ki (nM)) | also measured
Cc1c(C(=O)NCCF)nn(-c2ccc(Cl)cc2Cl)c1-c1ccc(Cl)cc1 [Compound O-1398, N-(2-fluoroethyl)-5-(4-chlorophenyl)-1-(2,4-dichlorophenyl)-4-methyl-1H-pyrazol-3-carboxamide] | 97% | None (3, 10 & 30) | 852 ± 175 nM |  |  |  |  |  |  |  |  |  |  | ED50 (mice [1]; Mus musculus, iv, 95% confidence limits in parentheses, * = estimated ED50, dose-effect curve not linear, read-out: SA (suppression of spontaneous activity) ED50): 7 µmol/kg; ED50 (mice [2]; 20 min, i.v., 20 min post-injection, 95% confidence limits in parentheses, * = estimated ED50, dose-effect curve not linear, read-out: TF (tail flick, % MPE) ED50): 13 µmol/kg; ED50 (mice [3]; 0.5 h, i.v., 30 min post-injection, 95% confidence limits in parentheses, read-out: RT (rectal temperature) ED50): 8 µmol/kg; CB1 binding affinity, fold decrease on shortening the n-pentyl amide (CB1 receptor; compared to O-1269): 27 fold; CB1 binding affinity, further fold reduction (CB1 receptor; compared to the n-propyl compound O-1399): 5 fold
CCCCCc1ccc(-n2nc(C(=O)NN3CCCCC3)c(C)c2-c2ccc(Cl)cc2)cc1 [Compound O-1255] | 20% | None (3, 10 & 30) | 433 ± 103 nM | 65% (10) | None (10) | > 30 mg/kg | > 30 mg/kg | > 30 mg/kg | 13% (10) |  |  |  |  | SA: maximum % antagonism of 3 mg/kg Δ^9-THC (mice [4]; at 10 mg/kg i.v.): 0% (10); RT: maximum % antagonism of 3 mg/kg Δ^9-THC (mice [5]; at 10 mg/kg i.v.): 14% (10); CB1 binding affinity, fold less than the n-butyl compound (CB1 receptor; compared to O-1254): ~2 fold
N-(N-Piperdyl)-3-(2,4-dichlrophenyl)-4-(4′-(1′-methylpentyl)phenyl)-5-methylpyrazole carboxamide [Compound O-1690] |  |  | 2.6 ± 0.13 nM |  |  |  |  |  |  | >30 mg/kg | >30 mg/kg | >30 mg/kg |  | Max % inhibit of spontaneous locomotor activity, Compound with 3 mg/kg Δ^9-THC (mice [4]; at 0.3 mg/kg i.v.): 88% (0.3); SA: maximum % antagonism of 3 mg/kg Δ^9-THC (mice [4]; at 1 mg/kg i.v.): 65% (1); Max stim of spontaneous locomotor activity, Compound with 3 mg/kg Δ^9-THC (mice [4]; at 10 mg/kg i.v.): 39% (10); Max % inhibit of spontaneous locomotor activity, Compound Alone (mice [1]; at 10 mg/kg i.v.): 24% (10); Max stim of spontaneous locomotor activity, Compound Alone (mice [1]; at 30 mg/kg i.v.): 18% (30); antagonist potency, fold increase for hypothermia (mice [5]; compared to O-1302): approximately 3 fold; antagonist potency, fold increase for antinociception (mice [6]; compared to O-1302): approximately 3 fold
CCCCCc1ccc(-c2cc(C(=O)NN3CCCCC3)nn2-c2ccc(Cl)cc2Cl)cc1 [Compound O-1710] | 42% |  |  | 82% (10) | None (0.3, 1, 3, & 10) | > 30 mg/kg | > 30 mg/kg | > 30 mg/kg | 62% (10) |  |  |  | 27 ± 0.86 nM | SA: maximum % antagonism of 3 mg/kg Δ^9-THC (mice [4]; at 3 mg/kg i.v.): 50% (3); change in vivo at 1 mg/kg (mice [1]; Mus musculus, iv, at 1 mg/kg i.v., read-out: Max stim of spontaneous locomotor activity, Compound Alone): 4%; RT: maximum % antagonism of 3 mg/kg Δ^9-THC (mice [5]; at 1 mg/kg i.v.): 51% (1); CB1 binding affinity, fold decrease by hydrogen substitution at position 4 (CB1 receptor; compared to the p-pentylphenyl analog with 4-methyl): 12 fold
CCCCCc1ccc(-c2c(-c3ccc(Cl)cc3Cl)nn(C(=O)NN3CCCCC3)c2Br)cc1 [Compound O-1691, N-(N-Piperdyl)-3-(2,4-dichlrophenyl)-4-(4′-pentylphenyl)-5-bromopyrazole-carboxamide] |  |  | 1.5 ± 0.22 nM |  |  |  |  |  |  | >30 mg/kg | >30 mg/kg | >30 mg/kg |  | Max % inhibit of spontaneous locomotor activity, Compound with 3 mg/kg Δ^9-THC (mice [4]; at 0.1 mg/kg i.v.): 91% (0.1); SA: maximum % antagonism of 3 mg/kg Δ^9-THC (mice [4]; at 0.3 mg/kg i.v.): 6% (0.3); Max stim of spontaneous locomotor activity, Compound with 3 mg/kg Δ^9-THC (mice [4]; at 3 mg/kg i.v.): 150% (3); Max stim of spontaneous locomotor activity, Compound Alone (mice [1]; at 1 mg/kg i.v.): 66% (1); Max % inhibit of spontaneous locomotor activity, Compound Alone (mice [1]; at 3 mg/kg i.v.): 15% (3)
Cc1c(C(=O)NN2CCCCC2)nn(-c2ccccc2)c1-c1ccc(Cl)cc1 [Compound O-1300] |  |  |  |  |  | > 30 mg/kg | > 30 mg/kg | > 30 mg/kg |  |  |  |  | 150 ± 20 nM | change in vivo at 30 mg/kg (mice [1]; Mus musculus, iv, at 30 mg/kg i.v., read-out: Max stim of spontaneous locomotor activity, Compound Alone): 54%; Max % inhibit of spontaneous locomotor activity, Compound Alone (in words: stimulation instead of inhibition) (mice [1]; doses in mg/kg): stim at 30; CB1 binding affinity, fold less than SR 141716A (CB1 receptor; compared to SR 141716A): 24 fold
